Measured values from PubChem BioAssay (NCI).
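Exposure lasted 48 hours, with cells grown in 96-well plates and compounds tested at five concentrations. The concentration for full growth arrest is given as TGI.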

Key:
Test in all cases: NCI tumour cell line growth inhibition, 48 h
DLD-1 colon = system: DLD-1 colon
LXFL 529 NSCLC = system: LXFL 529 NSCLC
XF 498 CNS = system: XF 498 CNS
M19-MEL melanoma = system: M19-MEL melanoma
DMS 273 small cell lung = system: DMS 273 small cell lung
P388 leukemia = system: P388 leukemia
P388/ADR leukemia = system: P388/ADR leukemia
SN12K1 renal = system: SN12K1 renal
DMS 114 small cell lung = system: DMS 114 small cell lung
RXF-631 renal = system: RXF-631 renal

Row | Compound | TGI (DLD-1 colon) [µM] | TGI (LXFL 529 NSCLC) [µM] | TGI (XF 498 CNS) [µM] | TGI (M19-MEL melanoma) [µM] | TGI (DMS 273 small cell lung) [µM] | TGI (P388 leukemia) [µM] | TGI (P388/ADR leukemia) [µM] | TGI (SN12K1 renal) [µM] | TGI (DMS 114 small cell lung) [µM] | TGI (RXF-631 renal) [µM]
1 | O=C1C=CC(=O)c2c(O)c(N3CCN(CCOCCO)CC3)c(Cl)c(O)c21 | 0.401 | 0.45 | 1.88 | 1.08 | 2.25 |  |  |  |  | 
2 | Cc1csc(NC(=NCCN2CCOCC2)Nc2nc(C)cs2)n1 | > 100 |  | > 100 | > 100 | > 100 | > 31.6 | > 100 | > 100 | > 100 | 
3 | CC1(C2CCC3(C)OC3C2)CO1 (stereo not given) | > 100 | > 100 | > 100 | > 100 | > 100 |  |  |  | > 100 | > 100
4 | C#CCC1(C(=O)OCC)C(=O)c2ccccc2N(C)C1=O (stereo not given) | > 100 | > 100 | 95.9 | > 100 | > 100 |  |  |  | > 100 | > 100
5 | CC(=O)O[C@H]1CC[C@@]2(C)[C@H](CC[C@@H]3[C@@H]2CC[C@]2(C)[C@@H](c4ccc(=O)oc4)C[C@H]4O[C@]342)C1 | 7.34 |  | 3.27 | 7.17 | 1.47 | 125 | 125 | 1.83 | 1.03 | 
6 | O=C(CC1Sc2ccccc2NC1=O)Nc1ccc(Cl)cc1 (stereo not given) | > 100 | > 100 | > 100 | > 100 | > 100 |  |  |  | > 100 | > 100
7 | CC(=O)CC(=O)CCC(=O)O | > 100 |  | > 100 | > 100 | > 100 |  |  |  | > 100 | 
8 | O=C1C=CC(=O)c2c(Cl)ccc(O)c21 | 27.6 |  | 32.7 | 30 | 25.4 | 3.84 | 1.96 | > 55.2 | 33.6 | 
